Assay results: BindingDB's records for patent US20250270215 (Chiesi Farmaceutici, 2025)

molecular target: T1, TGF-beta receptor type-1 (Homo sapiens, UniProt P36897); assay: In Vitro Assay
T1 sequence (P36897 whole entry): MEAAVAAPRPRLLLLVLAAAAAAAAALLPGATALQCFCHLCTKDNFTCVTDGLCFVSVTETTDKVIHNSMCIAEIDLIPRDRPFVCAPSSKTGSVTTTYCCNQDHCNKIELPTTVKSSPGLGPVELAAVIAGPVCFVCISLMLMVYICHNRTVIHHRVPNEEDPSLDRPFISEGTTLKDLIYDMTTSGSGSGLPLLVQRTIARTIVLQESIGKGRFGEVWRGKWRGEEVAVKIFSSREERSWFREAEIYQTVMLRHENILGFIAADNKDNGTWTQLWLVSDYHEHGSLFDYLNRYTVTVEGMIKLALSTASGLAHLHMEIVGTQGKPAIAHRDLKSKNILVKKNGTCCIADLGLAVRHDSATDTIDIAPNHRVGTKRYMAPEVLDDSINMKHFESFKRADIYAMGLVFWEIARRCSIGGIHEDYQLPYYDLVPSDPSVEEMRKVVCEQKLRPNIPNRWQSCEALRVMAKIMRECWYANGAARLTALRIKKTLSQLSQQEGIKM
Description: Briefly, the kinase reaction was performed by incubating 2.6 nM of the purified, commercially available human ALK5 (recombinant TGF β1 N-term GST-tagged, 80-end), a final concentration of TGFβ1 peptide 94.5 μM (Promega, T36-58) and ultra-pure ATP (Promega V915B). The ATP concentration was set at the Km value (concentration of substrate which permits the enzyme to achieve half maximal velocity (Vmax)) of ALK5 (5 μM). All reactions/incubations were performed at 25° C. Compound and ALK5 kinase were mixed and incubated for 15 mins. Reactions were initiated by addition of ATP at a final concentration in the assay of 0.83 μM. After an incubation of 150 min, the reaction was stopped, and ADP production detected with ADP-Glo kit according to manufacturer's indications. The assay was performed in 384-well format and was validated using a selection of reference compounds that was tested in 11 point concentration-response curve.

IC50, < 1 nM:
Fc1ccc(Cl)cc1-c1nc2n(c1-c1ccc3ncnn3c1)CCN2 [US20250270215, Example 2]
Cc1csc(-c2nc3n(c2-c2ccc4ncnn4c2)CCN3)n1 [US20250270215, Example 3]
Cc1cccc(-c2nc3n(c2-c2cc4cnccc4s2)CC(C(=O)O)N3)n1 (stereo not drawn) [US20250270215, Example 4]
Clc1cccc(-c2nc3n(c2-c2ccc4ncnn4c2)CCN3)n1 [US20250270215, Example 12]
Clc1cccc(-c2nc3n(c2-c2cc4cnccc4s2)CCN3)n1 [US20250270215, Example 13]
Fc1ccc(Cl)cc1-c1nc2n(c1-c1cc3cnccc3s1)CCN2 [US20250270215, Example 14]
Cc1cccc(-c2nc3n(c2-c2ccc4nsnc4c2)CCN3)n1 [US20250270215, Example 17]
Cc1cccc(-c2nc3n(c2-c2ccc4nonc4c2)CCN3)n1 [US20250270215, Example 18]
